Reference: patent publication EP3722296B1, “DIHYDRONAPHTHYRIDINES AND RELATED COMPOUNDS USEFUL AS KINASE INHIBITORS FOR THE TREATMENT OF PROLIFERATIVE DISEASES” (Deciphera Pharmaceuticals, LLC, priority 2012, dated 2013)

Tests used:
[1] = target: c-KIT kinase (Homo sapiens, UniProt P10721); assay: c-KIT kinase Assay; type: biochemical; parameters: cKIT residues T544-V976; GST (N); TEV cleavage site (internal); purchased deCODE Biostructures; conditions: enzymatic assay, ATP 200 µM; read-out: KIT (wt) IC50
c-KIT kinase, sequence (P10721 544-976): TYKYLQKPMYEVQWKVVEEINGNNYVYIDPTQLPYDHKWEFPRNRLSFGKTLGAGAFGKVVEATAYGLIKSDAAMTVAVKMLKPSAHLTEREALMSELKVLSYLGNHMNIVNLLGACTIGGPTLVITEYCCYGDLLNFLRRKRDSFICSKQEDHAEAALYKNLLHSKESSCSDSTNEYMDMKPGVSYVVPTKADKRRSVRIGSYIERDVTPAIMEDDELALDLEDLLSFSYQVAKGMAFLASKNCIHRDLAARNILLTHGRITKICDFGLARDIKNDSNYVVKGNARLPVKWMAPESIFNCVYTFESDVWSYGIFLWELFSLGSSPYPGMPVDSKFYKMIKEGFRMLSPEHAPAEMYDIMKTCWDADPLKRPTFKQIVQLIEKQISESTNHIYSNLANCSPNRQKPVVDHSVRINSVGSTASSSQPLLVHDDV
Outline: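 This continuous spectrophotometric assay tracked c-KIT kinase turnover through NADH consumption at 340 nm, recorded for 2 hours at 30 °C. The enzyme construct from deCODE Biostructures carried an N-terminal tag, a GST-fusion sequence and a TEV cleavage site. Percent inhibition came from reaction rates over 0 to 1 h relative to a no-compound control, and IC50 values were derived with GraphPad Prism.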

[2] = target: T1, c-KIT D816V kinase (Homo sapiens, UniProt P10721, D816V); assay: c-KIT D816V kinase Assay; type: biochemical; conditions: enzymatic assay, ATP 200 uM
T1 construct: residues T544-V976 with N-terminal GST fusion; purchased deCODE Biostructures
T1 sequence (P10721 544-976 D816V): as the sequence (P10721 544-976) above, with D273V counted along it
Outline: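 Coupled assay in which NADH oxidation was tracked as decreasing absorbance at 340 nm, continuously for 5 hours at 30 °C after adding serially diluted compound. Enzyme: cKit residues T544-V976 with N-terminal tag, GST fusion and TEV cleavage site.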

[3] = target: T2, c-KIT T670I kinase (Homo sapiens, UniProt P10721, T670I); assay: c-KIT T670I kinase assay; type: biochemical; conditions: enzymatic assay
T2 construct: The construct contains residues T544-V976 of cKit; GST (N); TEV cleavage site (internal); purchased deCODE Biostructures
T2 sequence (P10721 544-976 T670I): as the sequence (P10721 544-976) above, with T127I counted along it
Outline: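 Enzyme: GST-fused, N-terminally tagged cKit bearing T670I, with TEV cleavage site. Reaction started by mixing compound dilutions with reaction mix; activity read continuously over 5 h at 30 °C as loss of 340 nm absorbance from NADH consumption.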

[4] = system: Phospho-KIT (Tyr719); assay: GIST430 KIT Western Blot; type: cell-based; conditions: GIST430 cells, 4 hours, serum-free medium; read-out: pKIT suppression by western blot analysi GIST430
Procedure: (§1) GIST48, GIST430, and GIST882 cells were obtained from J. Fletcher (Brigham and Women's Hospital, Boston, MA). GIST T1 cells were obtained from B. Rubin (Cleveland Clinic, Cleveland, OH) and Professor Takahiro Taguchi (Kochi Medical School, Nankoku, Kochi, Japan). […] GIST430 cells were grown in Ham's F10 medium supplemented with 15% characterized fetal bovine serum (Invitrogen, Carlsbad, CA), 30 mg/L bovine pituitary extract (BD Biosciences, San Jose, CA), 0.5% Mito+ serum extender (BD Biosciences, San Jose, CA), 1 unit/mL penicillin G, 1 µg/ml streptomycin, and 0.29 mg/mL L-glutamine at 37 °C, 5%CO2, 95% humidity. GIST T1 cells were grown in DMEM medium supplemented with 10% characterized fetal bovine serum (Invitrogen, Carlsbad, CA), 1 unit/mL penicillin G, 1 µg/ml streptomycin, and 0.29 mg/mL L-glutamine at 37 °C, 5% CO2, and 95% humidity.
(§2) One hundred fifty thousand cells were added per well in a 24-well tissue-culture treated plate. […] Medium was aspirated, cells were washed with PBS, and serum-free Ham's F10 medium was added. […] Cells were washed with PBS, then lysed. Cell lysates were separated by SDS-PAGE and transferred to PVDF. Phospho-KIT (Tyr719) was detected using an antibody from Cell Signaling Technology (Beverly, MA), ECL Plus detection reagent (GE Healthcare, Piscataway, NJ) and a Molecular Devices Storm 840 phosphorimager in fluorescence mode. Blots were stripped and probed for total KIT using an antibody from Santa Cruz Biotech (Santa Cruz, CA). IC50 values were calculated using Prism software (Graphpad, San Diego, CA).

[5] = target: T3, Phospho-KIT (Tyr719) (Homo sapiens, UniProt P10721, K642E); assay: GIST882 KIT Western Blot; type: cell-based; conditions: GIST882 cells, 4 hours, serum-free medium; read-out: pKIT suppression by western blot analysi GIST 882
T3 construct: endogenous in cells; host or cells: GIST882
T3 sequence (P10721 26-976 K642E): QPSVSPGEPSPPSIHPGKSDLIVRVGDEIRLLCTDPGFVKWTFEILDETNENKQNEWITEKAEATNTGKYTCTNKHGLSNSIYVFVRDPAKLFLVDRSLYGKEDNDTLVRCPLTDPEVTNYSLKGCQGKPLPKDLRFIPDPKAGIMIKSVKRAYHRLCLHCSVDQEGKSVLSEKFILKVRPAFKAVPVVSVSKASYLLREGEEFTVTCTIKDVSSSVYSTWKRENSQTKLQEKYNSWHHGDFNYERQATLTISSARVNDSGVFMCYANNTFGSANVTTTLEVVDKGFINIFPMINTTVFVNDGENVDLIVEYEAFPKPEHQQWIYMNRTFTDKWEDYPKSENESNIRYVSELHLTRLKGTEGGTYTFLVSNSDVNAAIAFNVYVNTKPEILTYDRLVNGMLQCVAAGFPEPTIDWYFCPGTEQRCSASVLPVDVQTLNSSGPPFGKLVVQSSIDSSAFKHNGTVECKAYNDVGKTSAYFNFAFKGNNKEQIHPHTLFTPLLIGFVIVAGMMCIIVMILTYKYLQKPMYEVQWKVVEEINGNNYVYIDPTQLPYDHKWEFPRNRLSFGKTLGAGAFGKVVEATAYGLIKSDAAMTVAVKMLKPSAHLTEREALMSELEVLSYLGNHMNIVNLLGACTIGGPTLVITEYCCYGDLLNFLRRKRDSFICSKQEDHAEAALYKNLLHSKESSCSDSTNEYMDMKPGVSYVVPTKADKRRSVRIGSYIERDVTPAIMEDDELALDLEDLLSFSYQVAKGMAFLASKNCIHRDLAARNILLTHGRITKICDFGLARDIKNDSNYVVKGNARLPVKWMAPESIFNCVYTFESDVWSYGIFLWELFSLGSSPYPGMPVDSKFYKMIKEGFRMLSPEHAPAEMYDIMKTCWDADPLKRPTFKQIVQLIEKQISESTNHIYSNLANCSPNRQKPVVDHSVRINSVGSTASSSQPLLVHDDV
Procedure: as §1
as §2, with “Two” for “One”, “RPMI1640” for “Ham's F10”

[6] = target: T4, c-KIT V654A kinase (Homo sapiens, UniProt P10721, V654A); assay: c-KIT V654A Kinase Assay; type: biochemical; conditions: enzymatic assay, ATP 200 µM
T4 construct: residues T544-V976 with N-terminal GST fusion; purchased deCODE Biostructures
T4 sequence (P10721 544-976 V654A): as the sequence (P10721 544-976) above, with V111A counted along it
Outline: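 Kinase activity tracked by coupled NADH consumption, monitored continuously at 340 nm over 6 h at 30 °C after serially diluted compound was mixed in to start inhibition. Enzyme used was a GST-fused, N-terminally tagged cKIT T544–V976 construct with a TEV cleavage site.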

[7] = system: Phospho-KIT (Tyr719); assay: GIST48 KIT Western Blot; type: cell-based; conditions: GIST48 cells, 4 hours, serum-free medium; read-out: pKIT suppression by western blot analysi GIST48
Outline: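 Phospho-KIT (Tyr719) was immunoblotted on PVDF and imaged in fluorescence mode after ECL Plus, with stripping and reprobing for total KIT. IC50 values were derived from the blot signals.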

[8] = system: GIST T1 cells; assay: GIST T1 Cell Proliferation Assay; type: cell-based; conditions: Homo sapiens, GISTT1, 72 h, 68 hours + 4 hours resazurin
[9] = system: GIST430 cells; assay: GIST 430 Cell Proliferation Assay; type: cell-based; conditions: Homo sapiens, 120 h, 115 hours + 5 hours resazurin
Procedure: GIST48, GIST430, and GIST882 cells were obtained from J. Fletcher (Brigham and Women's Hospital, Boston, MA). GIST T1 cells were obtained from B. Rubin (Cleveland Clinic, Cleveland, OH) and Professor Takahiro Taguchi (Kochi Medical School, Nankoku, Kochi, Japan). Briefly, GIST48 and GIST 882 cells were grown in RPMI 1640 medium supplemented with 15% characterized fetal bovine serum (Invitrogen, Carlsbad, CA), 1 unit/mL penicillin G, 1 µg/ml streptomycin, and 0.29 mg/mL L-glutamine at 37 °C, 5% CO2, and 95% humidity. GIST430 cells were grown in Ham's F10 medium supplemented with 15% characterized fetal bovine serum (Invitrogen, Carlsbad, CA), 30 mg/L bovine pituitary extract (BD Biosciences, San Jose, CA), 0.5% Mito+ serum extender (BD Biosciences, San Jose, CA), 1 unit/mL penicillin G, 1 µg/ml streptomycin, and 0.29 mg/mL L-glutamine at 37 °C, 5%CO2, 95% humidity. GIST T1 cells were grown in DMEM medium supplemented with 10% characterized fetal bovine serum (Invitrogen, Carlsbad, CA), 1 unit/mL penicillin G, 1 µg/ml streptomycin, and 0.29 mg/mL L-glutamine at 37 °C, 5% CO2, and 95% humidity.
A serial dilution of test compound was dispensed into a 384-well black clear bottom plate (Corning, Corning, NY). Two thousand five-hundred cells were added per well in 50 µL complete growth medium. Plates were incubated for 115 hours at 37°C, 5% CO2, 95% humidity. At the end of the incubation period 10 µL of a 440 µM solution of resazurin (Sigma, St. Louis, MO) in PBS was added to each well and incubated for an additional 5 hours at 37°C, 5% CO2, 95% humidity. Plates were read on a Synergy2 reader (Biotek, Winooski, VT) using an excitation of 540 nm and an emission of 600 nm.

[10] = target: T5, c-KIT VVDV kinase (Homo sapiens, UniProt P10721, D816V/DEL559-560); assay: cKIT-VVDV kinase Assay; type: biochemical; conditions: enzymatic assay; V559+V560 deletions and D816V mutation
T5 construct: This construct contains residues T544-V976 of cKit; GST (N); TEV cleavage site (internal); purchased deCODE Biostructures
T5 sequence (P10721 with tags, fused parts or gaps DEL559-560/D816V): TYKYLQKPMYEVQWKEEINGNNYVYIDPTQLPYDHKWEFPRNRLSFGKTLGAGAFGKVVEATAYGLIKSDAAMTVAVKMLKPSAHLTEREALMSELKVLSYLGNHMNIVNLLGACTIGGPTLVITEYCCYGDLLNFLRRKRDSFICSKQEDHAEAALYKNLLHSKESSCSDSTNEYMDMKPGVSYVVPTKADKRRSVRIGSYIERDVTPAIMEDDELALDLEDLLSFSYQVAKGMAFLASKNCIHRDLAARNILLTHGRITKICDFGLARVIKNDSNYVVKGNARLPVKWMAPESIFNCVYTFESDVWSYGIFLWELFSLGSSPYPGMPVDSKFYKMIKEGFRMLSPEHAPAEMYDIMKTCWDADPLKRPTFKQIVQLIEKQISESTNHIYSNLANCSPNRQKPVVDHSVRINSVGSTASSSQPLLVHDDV
Procedure: In this assay, the oxidation of NADH (measured by decrease in absorbance at 340 nm) was continuously monitored spectrophotometrically. […] The inhibition reaction was started by mixing serial diluted test compound with the above reaction mixture. The absorption at 340 nm was monitored continuously for 5 hours at 30 °C on Synergy 2 plate reader (BioTech). […] The protein construct was prepared by deCODE Biostructures using procedures known in the art. […] This construct is identical to Seq ID no.

[11] = target: T6, c-KIT D816H kinase (Homo sapiens, UniProt P10721, D816H); assay: c-KIT D816H Kinase Assay; type: biochemical; conditions: enzymatic assay, ATP 200 µM
T6 construct: The construct contains residues T544-V976 of cKit; GST (N); TEV cleavage site (internal); purchased deCODE Biostructures
T6 sequence (P10721 544-976 D816H): as the sequence (P10721 544-976) above, with D273H counted along it
Outline: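 Mutant cKit enzyme, expressed as a GST-fusion construct carrying an N-terminal tag and TEV site, was mixed with serially diluted compound to start reactions. Activity tracked via NADH consumption, read continuously at 340 nm over 6 hours at 30 °C.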

Measured: IC50

CC(=O)Nc1cc2c(cn1)cc(-c1cc(NC(=O)Nc3ccccc3)c(F)cc1Cl)c(=O)n2C(C)C [Example 86, N-(3-(2-chloro-4-fluoro-5-(3-phenylureido)phenyl)-1-isopropyl-2-oxo-1,2-dihydro-1,6-naphthyridin-7-yl)acetamide]
< 0.01 µM: [1] | [2] | [5] | [7] | [8]
0.01 to 0.1 µM: [3] | [4] | [6]

CCn1c(=O)c(-c2cc(NC(=O)Nc3ccccc3)c(F)cc2Cl)cc2cnc(NCCCOC)cc21 [Example 39, 1-(4-chloro-5-(1-ethyl-7-(3-methoxypropylamino)-2-oxo-1,2-dihydro-1,6-naphthyridin-3-yl)-2-fluorophenyl)-3-phenylurea]
< 0.01 µM: [1]
0.01 to 0.1 µM: [2] | [9] | [3]

CNc1cc2c(cn1)cc(-c1cc(NC(=O)Nc3csc4ccccc34)c(F)cc1F)c(=O)n2C [Example 14, 1-(benzo[b]thiophen-3-yl)-3-(2,4-difluoro-5-(1-methyl-7-(methylamino)-2-oxo-1,2-dihydro-1,6-naphthyridin-3-yl)phenyl)urea]
0.01 to 0.1 µM: [2] | [10] | [4]
< 0.01 µM: [3] | [5] | [7]

CCn1c(=O)c(-c2cc(NC(=O)Nc3ccccc3)c(F)cc2F)cc2cnc(NC)cc21 [Example 16, 1-(5-(1-ethyl-7-(methylamino)-2-oxo-1,2-dihydro-1,6-naphthyridin-3-yl)-2,4-difluorophenyl)-3-phenylurea]
< 0.01 µM: [1] | [6]
0.1 to 1 µM: [4] | [7]
not listed: [8] | [9]
0.01 to 0.1 µM: all other assays above

CCn1c(=O)c(-c2cc(NC(=O)Nc3cccc(F)c3)c(F)cc2F)cc2cnc(NC)cc21 [Example 15, 1-(5-(1-ethyl-7-(methylamino)-2-oxo-1,2-dihydro-1,6-naphthyridin-3-yl)-2,4-difluorophenyl)-3-(3-fluorophenyl)urea]
< 0.01 µM: [1] | [6]
not listed: [8] | [9]
0.01 to 0.1 µM: all other assays above
